In patent US20210361715A1, “USE OF EXOSOME DERIVED FROM MESENCHYMAL STEM CELLS CO-CULTURED WITH MELATONIN IN PREVENTION AND TREATMENT OF CHRONIC KIDNEY DISEASE” (STEM BIO CO., LTD., priority 2020, published 2021):

What was measured:
[1] = tested on: cellular prion protein (PrPC); type: cell-based, human; conditions: healthy and CKD patient MSCs treated with melatonin; ELISA; FIGS. 4B, 4C
[2] = tested on: miR-4516; assay: miRNA / miR-4516 expression by RNA microarray and qPCR in MSCs and exosomes; type: cell-based, human; conditions: healthy MSCs and CKD-MSCs treated with melatonin; qPCR; FIG. 4F

COc1ccc2[nH]cc(CCNC(C)=O)c2c1 [melatonin]
expression of prion proteins present in the exosomes extracted from stem cells [1]: increases | expression level of miR-4516 in stem cells [2]: increase
